Reference: US5264457A, “Phenyl amidines sulfonamides useful as platelet aggregation inhibitors” (G. D. Searle & Co., priority 1992, dated 1993)

System: platelet aggregation in dog PRP
Assay: In-vitro platelet aggregation in PRP (ADP-induced, dog platelet-rich plasma)
Type: cell-based
Conditions: Canis lupus familiaris; for IC50: concentration inhibiting aggregation by 50%; for inhibition at 10 µM: test concentration of 10 μM
Experimental: Compounds of the invention were evaluated by an […] assay to determine compound activity as an inhibitors of platelet aggregation.
Healthy male or female dogs were fasted for 8 hours prior to drawing blood; then 30 mL whole blood was collected using a butterfly needle and 30 cc plastic syringe with 3 ml of 0.129M buffered sodium citrate (3.8%). The syringe was rotated carefully as blood was drawn to mix the citrate. Platelet-rich plasma (PRP) was prepared by centrifugation at 975×g for 3.17 minutes at room temperature, allowing the centrifuge to coast to a stop without braking. The PRP was removed from the blood with a plastic pipette and placed in a plastic capped, 50 ml Corning conical sterile centrifuge tube which was held at room temperature. Platelet poor plasma (PPP) was prepared by centrifuging the remaining blood at 2000×g for 15 minutes at room temperature allowing the centrifuge to coast to a stop without braking. The PRP was adjusted with PPP to a count of 2-3×10^8 s platelets per ml. 400 μL of the PRP preparation and 50 μL of the compound to be tested or saline were preincubated for 1 minute at 37° C. in a BioData aggregometer (BioData, Horsham, Pa.). 50 μL of adenosine 5'diphosphate (ADP) (50 μm final concentration) was added to the cuvettes and the aggregation was monitored for 1 minute. All compounds are tested in duplicate. Inhibition of aggregation for each sample was determined using the formula: % inhibition=(Tinh -Tbas)/(Tagg -Tbas ×100 where Tbas is % of light transmission in PRP (baseline), Tagg is % of light transmission in the aggregated PRP sample (saline control) and Tinh is % of light transmission in the sample containing the inhibitor.

| Compound | IC50 [µM] | inhibition at 10 µM [%] |
| --- | --- | --- |
| Cc1ccc(S(=O)(=O)NCC(CC(=O)O)NC(=O)CCCCc2ccc(C(=N)N)cc2)cc1 (racemic) [Example 1, (±)-3-[[5-[4-(Aminoiminomethyl)phenyl]-1-oxopentyl]amino]-4-[[(4-methylphenyl)sulfonyl]amino]butanoic acid] | 1 | 100 |
| COc1ccc(S(=O)(=O)NCC(CC(=O)O)NC(=O)CCCCc2ccc(C(=N)N)cc2)cc1 (racemic) [Example 2, (±)-3-[[5-[4-(Aminoiminomethyl)phenyl]-1-oxopentyl]amino]-4-[[(4-methoxyphenyl)sulfonyl]amino]butanoic Acid] | 8 | 100 |
| CCOC(=O)CC(CNS(=O)(=O)c1ccc(C)cc1)NC(=O)CCCCc1ccc(C(=N)N)cc1 (racemic) [Example 3, (±) Ethyl-3-[[5-[5-(Aminoiminomethyl)phenyl]-1-oxopentyl]amino]-4-[[(4-methylphenyl)sulfonyl]amino]butanoate] |  | 20 |
